# Like-named read-outs stand apart in the source and are kept apart here.
# Experiments:
# [1] = molecular target: T1, human thyroid hormone receptors TRβ1 (Homo sapiens, UniProt P10828); experiment: Receptor binding to TRβ1 (gel filtration and scintillation proximity assay, labeled T3); conditions: read-out: Ki TRβ
# T1 construct: made in house; host or cells: Sf9 insect cells (baculovirus)
# T1 sequence (P10828 1-461): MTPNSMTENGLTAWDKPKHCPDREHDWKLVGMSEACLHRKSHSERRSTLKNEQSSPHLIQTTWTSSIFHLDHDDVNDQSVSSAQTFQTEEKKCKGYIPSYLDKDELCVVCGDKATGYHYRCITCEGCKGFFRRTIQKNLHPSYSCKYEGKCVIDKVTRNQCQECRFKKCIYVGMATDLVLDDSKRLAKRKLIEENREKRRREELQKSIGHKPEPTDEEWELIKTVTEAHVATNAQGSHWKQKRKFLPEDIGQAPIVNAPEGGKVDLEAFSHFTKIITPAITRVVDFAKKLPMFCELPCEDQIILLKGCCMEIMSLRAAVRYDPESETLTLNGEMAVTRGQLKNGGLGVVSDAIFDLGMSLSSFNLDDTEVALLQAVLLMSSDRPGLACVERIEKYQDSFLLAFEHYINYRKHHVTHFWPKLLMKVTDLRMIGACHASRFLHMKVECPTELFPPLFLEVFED
# T1 sequence (P19793 1-462 partner): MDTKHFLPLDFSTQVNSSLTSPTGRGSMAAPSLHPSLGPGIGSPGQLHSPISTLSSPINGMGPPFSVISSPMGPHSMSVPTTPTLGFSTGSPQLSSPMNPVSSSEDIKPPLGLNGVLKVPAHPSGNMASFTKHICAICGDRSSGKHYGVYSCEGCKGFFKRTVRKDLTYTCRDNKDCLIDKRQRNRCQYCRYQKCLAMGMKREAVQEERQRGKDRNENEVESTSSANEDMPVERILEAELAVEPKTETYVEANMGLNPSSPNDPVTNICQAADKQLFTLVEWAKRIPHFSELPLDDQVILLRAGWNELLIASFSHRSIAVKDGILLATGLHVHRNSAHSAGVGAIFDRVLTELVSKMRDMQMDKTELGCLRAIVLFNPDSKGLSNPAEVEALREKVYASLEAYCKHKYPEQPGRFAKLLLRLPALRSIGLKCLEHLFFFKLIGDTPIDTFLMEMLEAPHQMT
# Procedure: (§1) Methods: Baculoviruses expressing TRα1, TRβ1 and RXRα were generated using cDNA and other reagents from Invitrogen (Carlsbad, Calif.). To produce TR/RXR heterodimer proteins, the sf9 insect cells were first grown to a density of 1-5×10^5 cells/mL. […] and RXRα baculovirus stocks were added to the cell culture with a ratio of 1 to 1 (multiplicity of infection=10). The cells were harvested three days after the infection.
# (§2) Binding of compounds to either the TRα1 or TRβ1 were also performed by means of scintillation proximity assays (SPA). The SPA assay, a common method used for the quantitation of receptor-ligand equilibria, makes use of special beads coated with a scintillant and a capture molecule, copper, which binds to the histidine-tagged α or β receptor.
# plasma cholesterol = experiment: Cholesterol lowering in hypercholesterolemic rats; assay type: in vivo
# [2] = molecular target: T2, human thyroid hormone receptors TRα1 (Homo sapiens, UniProt P10827); experiment: Receptor binding to TRα1 (gel filtration and scintillation proximity assay, labeled T3); conditions: read-out: Ki TRα
# T2 construct: made in house; host or cells: Sf9 insect cells (baculovirus)
# T2 sequence (P10827 1-410 isoform P10827-2): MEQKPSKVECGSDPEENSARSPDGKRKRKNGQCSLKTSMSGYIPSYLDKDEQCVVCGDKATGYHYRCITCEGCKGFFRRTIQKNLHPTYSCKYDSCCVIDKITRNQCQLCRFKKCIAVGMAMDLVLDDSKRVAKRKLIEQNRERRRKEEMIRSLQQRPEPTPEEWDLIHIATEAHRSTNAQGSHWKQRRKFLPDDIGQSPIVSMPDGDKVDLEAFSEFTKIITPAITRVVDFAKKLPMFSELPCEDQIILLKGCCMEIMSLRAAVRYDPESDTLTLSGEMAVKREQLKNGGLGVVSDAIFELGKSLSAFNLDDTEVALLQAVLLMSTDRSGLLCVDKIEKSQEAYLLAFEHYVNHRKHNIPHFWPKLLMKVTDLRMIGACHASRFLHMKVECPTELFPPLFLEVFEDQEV
# T2 sequence (P19793 1-462 partner): T1 sequence (P19793 1-462 partner)
# Procedure: as §1, §2
# [3] = Rattus norvegicus, ip, delivered i.p (0.2 mg/kg/d), percentage change from pre-dose cholesterol, read-out: % Cholesterol Lowering
# [4] = Rattus norvegicus, po, delivered p.o. (0.2 mg/kg/d), percentage change from pre-dose cholesterol, read-out: % Cholesterol Lowering
compound,measurement,setting,value
"Cc1cc(Cc2c(C)cc(OCP(=O)(O)O)cc2C)cc(C(C)C)c1O [Compound 7-10, [3,5-dimethyl-4-(4′-hydroxy-3′-iso-propyl-5′-methyl benzyl)phenoxy]methylphosphonic Acid]",Ki,[1]; SPA data,48 nM
same,change in vivo at 0.2 mg/kg/day,plasma cholesterol; [3],-25.8%
same,Ki,[2]; SPA data,112 nM
"O=P(O)(O)Cc1cc(I)c(Oc2ccc(O)c(I)c2)c(I)c1 [Compound 6, 3,5-diiodo-4-(4′-hydroxy-3′-iodophenoxy)benzylphosphonic acid]",Ki,[1],26 nM
same,change in vivo at 0.2 mg/kg/day,plasma cholesterol; [3],-20.5%
same,Ki,[2]; SPA data,16 nM
"CC(C)c1cc(Oc2c(Cl)cc(NCP(=O)(O)O)cc2Cl)ccc1O [Compound 22, [3,5-dichloro-4-(4′-hydroxy-3′-iso-propylphenoxy)phenylamino]methylphosphonic acid]",Ki,[1]; SPA data,31 nM
same,change in vivo at 0.2 mg/kg/day,plasma cholesterol; [3],-44%
same,change in vivo at 0.2 mg/kg/day,plasma cholesterol; [4],-16.5%
same,Ki,[2]; SPA data,186 nM
"Cc1cc(NCP(=O)(O)O)cc(C)c1Cc1ccc(O)c(C(C)C)c1 [Compound 47, [3,5-Dimethyl 4-(4′-hydroxy-3′-iso-propylbenzyl)-phenylamino]methylphosphonic Acid]",Ki,[1]; SPA data,2.5 nM
same,change in vivo at 0.2 mg/kg/day,plasma cholesterol; [3],-29.3%
same,Ki,[2]; SPA data,24.3 nM
"Cc1cc(OCP(=O)(O)O)cc(C)c1Cc1ccc(F)c(C(C)C)c1 [Compound 27, [3,5-dimethyl-4-(4′-fluoro-3′-iso-propylbenzyl)phenoxy]methylphosphonic acid]",Ki,[1]; SPA data,> 2000 nM
same,change in vivo at 0.2 mg/kg/day,plasma cholesterol; [3],-20.8%
same,Ki,[2]; SPA data,> 2000 nM
"CCc1cc(Cc2c(C)cc(OCP(=O)(O)O)cc2C)ccc1O [Compound 7-8, [3,5-dimethyl-4-[3′-ethyl-4′-hydroxybenzyl]phenoxy]methylphosphonic acid]",Ki,[1],9.7 nM
same,change in vivo at 0.2 mg/kg/day,plasma cholesterol; [3],-28.6%
same,Ki,[2],62 nM
"CC(C)c1cc(Oc2c(Br)cc(NCP(=O)(O)O)cc2Br)ccc1O [Compound 22-1, [3,5-dibromo-4-(4′-hydroxy-3′-iso-propylphenoxy)phenylamino]methylphosphonic acid]",Ki,[1],1.5 nM
same,change in vivo at 0.2 mg/kg/day,plasma cholesterol; [4],-19.9%
"CCC(CC)c1cc(Cc2c(C)cc(OCP(=O)(O)O)cc2C)ccc1O [Compound 7-9, [3,5-dimethyl-4-[3′-(1-ethylpropyl)-4′-hydroxybenzyl]phenoxy]methylphosphonic acid]",Ki,[1]; SPA data,5.4 nM
same,change in vivo at 0.2 mg/kg/day,plasma cholesterol; [3],-63.2%
same,change in vivo at 0.2 mg/kg/day,plasma cholesterol; [4],-38.4%
same,Ki,[2]; SPA data,110 nM
"CC(C)c1cc(Oc2c(Cl)cc(OCP(=O)(O)O)cc2Cl)ccc1O [Compound 8-2, [3,5-dichloro-4-(3′-iso-propyl-4′-hydroxyphenoxy)phenoxy]methylphosphonic acid]",Ki,[1]; SPA data,20 nM
same,change in vivo at 0.2 mg/kg/day,plasma cholesterol; [3],-48%
same,Ki,[2]; SPA data,114 nM
"CC(C)c1cc(Oc2c(Br)cc(CP(C)(=O)O)cc2Br)ccc1O [Compound 71, [3,5-Dibromo-4-(4′-hydroxy-3′-isopropylphenoxy)benzyl]methylphosphinic Acid]",Ki,[1]; SPA data,0.4 nM
same,change in vivo at 0.2 mg/kg/day,plasma cholesterol; [4],-54.4%
same,Ki,[2]; SPA data,4 nM
Cc1cc2[nH]c(P(=O)(O)O)cc2c(C)c1Oc1ccc(O)c(C(C)C)c1 [Compound 66],Ki,[1]; SPA data,121 nM
same,change in vivo at 0.2 mg/kg/day,plasma cholesterol; [3],-42.9%
same,change in vivo at 0.2 mg/kg/day,plasma cholesterol; [4],-12.5%
same,Ki,[2]; SPA data,863 nM
"O=P(O)(O)Cc1cc(Cl)c(Oc2ccc(O)c(Cc3ccc(F)cc3)c2)c(Cl)c1 [Compound 11, 3,5-dichloro-4-[3′-(4-fluorobenzyl)-4′-hydroxyphenoxy]benzylphosphonic acid]",Ki,[1]; SPA data,30.3 nM
same,change in vivo at 0.2 mg/kg/day,plasma cholesterol; [3],-36.4%
same,change in vivo at 0.2 mg/kg/day,plasma cholesterol; [4],-5.1%
same,Ki,[2]; SPA data,121 nM
"Cc1cc(OCP(=O)(O)O)cc(C)c1Cc1ccc(O)c(Cc2ccccc2)c1 [Compound 38, [4-(3′-benzyl-4′-hydroxy-benzyl)-3,5-dimethylphenoxy]methylphosphonic acid]",Ki,[1]; SPA data,5.4 nM
same,change in vivo at 0.2 mg/kg/day,plasma cholesterol; [3],-21.7%
same,Ki,[2]; SPA data,254 nM
"Cc1cc2oc(P(=O)(O)O)cc2c(C)c1Cc1ccc(O)c(C(C)C)c1 [Compound 45, [4,6-Dimethyl-5-(4′-hydroxy-3′-iso-propyl)benzyl]benzofuran-2-phosphonic Acid]",Ki,[1]; SPA data,14 nM
same,change in vivo at 0.2 mg/kg/day,plasma cholesterol; [3],-46.3%
same,change in vivo at 0.2 mg/kg/day,plasma cholesterol; [4],-40.4%
same,Ki,[2]; SPA data,216 nM
"CC(C)c1cc(Oc2c(Br)cc(OCP(=O)(O)O)cc2Br)ccc1O [Compound 8-1, [3,5-dibromo-4-(3′-iso-propyl-4′-hydroxyphenoxy)phenoxy]methylphosphonic acid]",Ki,[1],2.51 nM
same,change in vivo at 0.2 mg/kg/day,plasma cholesterol; [4],-32.2%
same,Ki,[2],18.6 nM
"CC(C)c1cc(Oc2c(Br)cc(CCP(=O)(O)O)cc2Br)ccc1O [Compound 67, 2-[3,5-dibromo-4-(4′-hydroxy-3′-isopropylphenoxy)phenyl]ethylphosphonic Acid]",Ki,[1]; SPA data,1.8 nM
same,change in vivo at 0.2 mg/kg/day,plasma cholesterol; [4],-17%
same,Ki,[2]; SPA data,37 nM
"Cc1cc(OCP(=O)(O)O)cc(C)c1Cc1ccc(O)c(C(=O)NCCc2ccccc2)c1 [Compound 37, [3,5-dimethyl-4-(4′-hydroxy-3′-phenethylcarbamoylbenzyl)phenoxy]methylphosphonic acid]",Ki,[1]; SPA data,23 nM
same,change in vivo at 0.2 mg/kg/day,plasma cholesterol; [3],-0.4%
same,Ki,[2]; SPA data,294 nM
"Cc1cc(OCP(=O)(O)O)cc(C)c1Cc1ccc(O)c(Cc2ccc(F)cc2)c1 [Compound 40, [3,5-dimethyl-4-[3′-(4-fluoro-benzyl)-4′-hydroxy-benzyl]phenoxy]methylphosphonic acid]",Ki,[1]; SPA data,1.1 nM
same,change in vivo at 0.2 mg/kg/day,plasma cholesterol; [3],-64.2%
same,change in vivo at 0.2 mg/kg/day,plasma cholesterol; [4],-27.3%
same,Ki,[2]; SPA data,30 nM
"Cc1cc(CCCP(=O)(O)O)cc(C)c1Oc1ccc(O)c(C(C)C)c1 [Compound 29, 3-[3,5-dimethyl-4-(4′-hydroxy-3′-iso-propylphenoxy)phenyl]propylphosphonic acid]",Ki,[1]; SPA data,47 nM
same,change in vivo at 0.2 mg/kg/day,plasma cholesterol; [3],-21.9%
same,Ki,[2]; SPA data,661 nM
"CC(C)c1cc(Oc2c(Cl)cc(CP(=O)(O)O)cc2Cl)ccc1O [Compound 19, [3,5-dichloro-4-(4′-hydroxy-3′-iso-propylphenoxy)]benzylphosphonic acid]",Ki,[1],52 nM
same,change in vivo at 0.2 mg/kg/day,plasma cholesterol; [3],-19%
same,Ki,[2],304 nM
CC(C)c1cc(Oc2c(Cl)c(F)nc(NCP(=O)(OCOC(=O)C(C)(C)C)OCOC(=O)C(C)(C)C)c2Cl)ccc1O [Compound 12-9],efficacy in lowering cholesterol,"plasma cholesterol; another experiment, hypercholesterolemic rats",not efficacious
"CC(C)c1cc(Cc2c(Cl)cc(OCP(=O)(OCOC(=O)C(C)(C)C)OCOC(=O)C(C)(C)C)cc2Cl)ccc1O [Compound 12-8, Di(pivaloyloxymethyl)[3,5-dichloro-4-(4′-hydroxy-3′-iso-propylbenzyl)phenoxy]methylphosphonate]",change in vivo at 0.5 mg/kg/day,"plasma cholesterol; Rattus norvegicus, po, delivered p.o. (0.5 mg/kg/d), percentage change from pre-dose cholesterol, read-out: % Cholesterol Lowering",-33.7%
CCOC(=O)[C@H](C)NP(=O)(COc1cc(Cl)c(Cc2ccc(O)c(C(C)C)c2)c(Cl)c1)N[C@@H](C)C(=O)OCC [Compound 15-7],% Cholesterol Lowering,"plasma cholesterol; delivered p.o. (0.5 mg/kg/d), percentage change from pre-dose cholesterol",−29.1%
"Cc1cc(CCP(=O)(O)O)cc(C)c1Cc1ccc(O)c(C(C)C)c1 [Compound 24-1, 2-[3,5-dimethyl-4-(4′-hydroxy-3′-iso-propylbenzyl)phenyl]ethylphosphonic acid]",Ki,[1],31 nM
same,change in vivo at 0.2 mg/kg/day,plasma cholesterol; [3],-35.4%
